Test results taken from the METLIN SMRT retention time set (Domingo-Almenara et al. 2019).

Assay: gradient 5% acetonitrile 3 min, to 50% in 2 min, to 85% in 15 min, held 3 min, 100 µL/min
Conditions: column: Zorbax Extend-C18 2.1 x 50 mm; eluents: water / acetonitrile, 0.1% formic acid
Outline: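 The mobile phases were water and acetonitrile, each with 0.1% formic acid, pumped at 100 μL/min through a Zorbax Extend-C18 column (2.1 × 50 mm, 1.8 μm). Pure standards were injected as mixtures of ~100 molecules and detected by a quadrupole time-of-flight mass spectrometer in positive and negative ionization mode. Retention time came from computationally picked adduct peaks, each inspected by hand.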
In the case of `CC(C)N1CCN(C(=O)C2CCN(c3nc4ccc(-c5ccccc5)nc4s3)CC2)CC1`, the RP-LC retention time is reported as 696 s. For `CCOC(=O)C1CCN(C(=O)C2CCN(c3nnc(-c4ccc(C)cc4)o3)CC2)CC1`, the RP-LC retention time was 842 s. `Cc1c(Cl)cccc1S(=O)(=O)N1CCCN(c2ccc(=O)n(-c3ccccc3)n2)CC1` gave an RP-LC retention time of 944 s. In the case of `Cc1nnc(SCC(=O)N2CCOCC2)s1`, the RP-LC retention time is reported as 560 s. `O=C(Cc1cc(-c2cc3ccccc3o2)on1)NCCC1=CCCCC1` showed an RP-LC retention time of 1060 s. Work on `Nc1cc([N+](=O)[O-])ccc1N1C(=O)CCCC1=O` yielded an RP-LC retention time of 650 s. `CC(C)NC(=O)CCn1c(=O)c2cc(Cl)ccc2n2c(=O)n(Cc3ccccc3)nc12` gave an RP-LC retention time of 856 s. Compound `O=c1ccc(-c2ccccc2)nn1CCc1nc(-c2ccc(F)cc2)no1` has an RP-LC retention time of 970 s. Compound `COc1cccc(-n2cc(C(=O)OCc3cccnc3)c3ccccc3c2=O)c1` has an RP-LC retention time of 754 s. Compound `Cc1ccc(NC(=O)Nc2nccn(-c3cccc(Cl)c3)c2=O)cc1F` has an RP-LC retention time of 1000 s. In the case of `Cc1cc(C2CCCN2C(=O)Nc2cc(Cl)ccc2C)no1` (stereo unspecified), the RP-LC retention time is reported as 893 s. Compound `COc1ccc(-n2c(=O)n(C)c(=O)c3cc(C(=O)Nc4ccc(F)c(F)c4)cnc32)cc1` has an RP-LC retention time of 948 s. For `O=C(CCn1cnc2ccccc2c1=O)N1CCN(c2ccccn2)CC1`, the RP-LC retention time was 578 s. `CCCc1nc(-c2c(C)cc(C)nc2NC(=O)c2cccc(Br)c2)no1` showed an RP-LC retention time of 1010 s. In the case of `COc1cccc(NC(=O)NCC2CC(=O)N(Cc3ccc(F)cc3)C2)c1OC` (stereo unspecified), the RP-LC retention time is reported as 695 s. `CCn1nc(C)c(CCNC(=O)c2ccc3c(c2)N(C)C(=O)C2CCCCN32)c1C` (stereo unspecified) gave an RP-LC retention time of 661 s. In the case of `c1ccc(-n2nnnc2SCCNCc2ccc3c(c2)OCCO3)cc1`, the RP-LC retention time is reported as 634 s. `Cc1nc(Cn2cccc2C(=O)Nc2ccc(F)cc2)no1` showed an RP-LC retention time of 815 s. `O=C(O)c1cnc(N2CCSCC2)nc1-c1ccccc1` showed an RP-LC retention time of 866 s. Compound `O=C(N[C@@H]1CN(Cc2ccc3c(c2)CCO3)C[C@H]1CO)C1CCC1` has an RP-LC retention time of 591 s. In the case of `CCC(C)NC(=O)N1CCC(N2CCN(Cc3cccc(C)c3)C2=O)CC1` (stereo unspecified), the RP-LC retention time is reported as 784 s. `Cc1ccc(CNC(=O)N2CC(N(C3CCOCC3)S(C)(=O)=O)C2)cc1` gave an RP-LC retention time of 591 s. Work on `CC(C)NC(=O)c1ccc(OCC2CCCN2C(=O)c2ccoc2)cc1` (stereo unspecified) yielded an RP-LC retention time of 747 s. In the case of `COc1ccccc1NC(=O)Nc1c(-c2cccc(C)c2)nc2ccccn12`, the RP-LC retention time is reported as 700 s. With `O=C(Nc1ccc(OCc2cc(C(=O)NC3CC3)no2)cc1)c1ccc(Cl)cc1` the RP-LC retention time was 872 s. `Cn1nccc1-c1cccc(-c2noc(-c3cccc(Br)c3)n2)c1` gave an RP-LC retention time of 1300 s. Work on `Cc1cc(C)c(S(=O)(=O)N2CCc3c(c(CN4CCCC4)nn3C)C2)c(C)c1` yielded an RP-LC retention time of 686 s. Work on `CSc1nc2ccc(NC(=O)c3ccc(N4C(=O)CCC4=O)cc3)cc2s1` yielded an RP-LC retention time of 730 s. Work on `COc1ccc(Cl)cc1C(=O)NCC(O)C1CCCCC1` (stereo unspecified) yielded an RP-LC retention time of 863 s. With `CC(C)n1c(CCNC(=O)c2ccccc2Cl)nc2cccnc21` the RP-LC retention time was 651 s. Work on `Cc1cccc(N2CCN(c3ccc4cc(S(=O)(=O)N5CCC(C)CC5)ccc4n3)CC2)c1C` yielded an RP-LC retention time of 1460 s. `COc1ccccc1NC(=O)CN1CCN(Cc2ccc(C)cc2)C(=O)C1=O` showed an RP-LC retention time of 771 s. `CCOC(=O)c1c(S(=O)(=O)N2CCC(C(=O)NC3CCCC3)CC2)c(C)n(C)c1C` showed an RP-LC retention time of 766 s. `CCOC(=O)C1=C(CN2CCCCC2)NC(=O)NC1c1ccco1` (stereo unspecified) gave an RP-LC retention time of 579 s. For `Cc1nc(-c2ccc3c(c2)n(CC(=O)NC2CCC(C)CC2)c(=O)n3C(C)C)no1` (stereo unspecified), the RP-LC retention time was 897 s. Compound `O=C(NC1CCN(c2ccccc2)C1=O)c1ccccc1C(F)(F)F` (stereo unspecified) has an RP-LC retention time of 826 s. `CCc1nc(-c2cc(S(=O)(=O)Nc3cc(F)ccc3Cl)c(C)s2)cs1` gave an RP-LC retention time of 1160 s. Compound `Cc1ccc(-n2nc3c(N4CCCC(C(=O)NCCc5ccccc5)C4)nnc(C)c3c2C)cc1` (stereo unspecified) has an RP-LC retention time of 766 s. For `CC1=C(c2ccc(F)cc2)S(=O)(=O)N=C1N1CCCN(C(=O)CC2CCCC2)CC1`, the RP-LC retention time was 883 s. With `O=C(CN1C(=O)NC2(CCCCC2)C1=O)NCc1cccc(Br)c1` the RP-LC retention time was 772 s. `CCc1nn2c(CNC(=O)c3cccc(Br)c3)c(-c3ccccc3)nc2s1` showed an RP-LC retention time of 1030 s. For `O=C(Nc1cccc(F)c1)C1CCCN(c2ccc3cc(S(=O)(=O)N4CCCCC4)ccc3n2)C1` (stereo unspecified), the RP-LC retention time was 908 s. `Cc1nc2ccc(Cl)cn2c1[N+](=O)[O-]` gave an RP-LC retention time of 820 s. `CCc1ccc(-c2nc(C3CC(=O)N(c4ccc(Cl)cc4)C3)no2)cc1` (stereo unspecified) gave an RP-LC retention time of 1020 s. Compound `CC(N)C(=O)OC(C)(C)Cc1ccc(Cl)cc1` (stereo unspecified) has an RP-LC retention time of 757 s. `Cc1ccc(NC(=O)Cn2cnc3c(sc4nc(-c5ccccc5)ccc43)c2=O)cc1Cl` gave an RP-LC retention time of 1120 s. For `Cc1ccc(Nc2nc(C(=O)NC3CCS(=O)(=O)C3)nc3ccccc23)cc1` (stereo unspecified), the RP-LC retention time was 685 s. Work on `CCCN1C(=O)C(NC(=O)CCc2ccccc2)(C(F)(F)F)C(C(=O)OC)=C1C` (stereo unspecified) yielded an RP-LC retention time of 916 s. With `NC(=O)c1cc[nH]c1C1CCCN(S(=O)(=O)c2cnc[nH]2)C1` (stereo unspecified) the RP-LC retention time was 574 s. `CCN1CCN(C(=O)C2CCN(S(=O)(=O)c3ccc4c(c3)sc(=O)n4CC)CC2)CC1` showed an RP-LC retention time of 602 s. With `CC(C)Sc1ccc(CC(=O)N2CC(c3nc(-c4ncccn4)no3)C2)cc1` the RP-LC retention time was 732 s. `CCOc1ccc(-c2[nH]nc3nc(-c4cccc(OC)c4)cc(C(=O)O)c23)cc1` showed an RP-LC retention time of 821 s. In the case of `Cc1nn2c(CNC(=O)c3ccsc3)c(-c3ccccc3)nc2s1`, the RP-LC retention time is reported as 782 s. For `CCOC(=O)c1c(S(=O)(=O)N2CCC(C(=O)NCc3cccc(C)c3)CC2)c(C)n(C)c1C`, the RP-LC retention time was 841 s. Compound `CC1CCN(C(=O)C2=CN(c3ccc4c(c3)OCCO4)c3ccccc3S2(=O)=O)CC1` has an RP-LC retention time of 899 s. In the case of `O=C(CSc1nnc(NC(=O)COc2ccc(Cl)cc2)s1)NCc1ccco1`, the RP-LC retention time is reported as 768 s. `COc1cccc(NC(=O)N2CCCC(Cn3cnc4cccnc43)C2)c1` (stereo unspecified) showed an RP-LC retention time of 653 s. With `CCN(c1ccc(OC)cc1)S(=O)(=O)c1ccc2c(c1)CCCC(=O)N2` the RP-LC retention time was 804 s. Work on `Cc1cc(C)n(Cc2nc(-c3ccc(NC(=O)c4ccsc4)cc3)oc2C)n1` yielded an RP-LC retention time of 940 s. Work on `CC(C)NC(=O)C1(c2ccc(NC(=O)C(C)C)cc2)CCCCC1` yielded an RP-LC retention time of 851 s. With `CN(C)c1cccc(C(=O)NC2CCN(c3cc(-c4ccc(F)cc4)[nH]n3)C2)c1` (stereo unspecified) the RP-LC retention time was 684 s. `CC1CCN(c2cc(-n3cnc(C(=O)N4CCC(C(N)=O)CC4)c3)ncn2)CC1` gave an RP-LC retention time of 669 s. For `COc1ccc2nc(N3CCC(C(=O)N4CCN(c5ccccn5)CC4)CC3)sc2c1`, the RP-LC retention time was 578 s. Work on `Cc1[nH]c(C(=O)N2CCCC(C(=O)NCc3ccccc3F)C2)c(C)c1C(=O)OC(C)C` (stereo unspecified) yielded an RP-LC retention time of 860 s. `COC(=O)c1ccc(CSc2nnc(CNC(=O)c3cccc([N+](=O)[O-])c3C)o2)o1` showed an RP-LC retention time of 732 s. In the case of `CSc1cccc(NC(=O)CN2C(=O)C3CCCCN3c3ccc(C(=O)N4CCCC4)cc32)c1` (stereo unspecified), the RP-LC retention time is reported as 869 s.
